Values after ≈ are worked out from the molar mass of the structure shown. “Also recorded” adds a separate entry of the source.
Columns and labels:
certain parasites = details: background; cited from earlier work
[1] = background; cited from earlier work
Leishmania donovani = assay: In vitro antiparasitic activity against Leishmania donovani; type: cell-based; details: for IC50: Leishmania donovani, 120 h, 5 days at 26° C., read-out: ED50 (the source's name)
Procedure: (§1) The antiparasitic activities of the 1-(5'-0-sulfamoyl-β-D-ribofuranosyl)[1,2,4]triazolo 3-carboxamide, 3-thiocarboxamide and 3-carbonitrile compounds of the invention are shown in various in vitro and in vivo systems. […] These are representative of the protozoan diseases: leishmaniasis, trypanosomiasis, giardiasis and trichomoniasis.
(§2) Leishmania donovani (ATCC #30142)) and Trypanosoma qambiense (TH114, obtained from R. Brun, Schweizer Tropeninstitut, Basel, Switzerland) were grown in THOSMEM, HOSMEM and PPDM-79 media respectively as described in J. J. Marr, R. L. Berens and D. J. Nelson, J. Science. 202, 1018 (1978), J. J. Marr, D. J. Nelson and R. L. Berens, Biochim. Biophys. Acta, 544, 360 (1978) and W. R. Fish, J. J. Marr and R. L. Berens, Biochim. Biophys. Acta, 714, 422 (1982). For drug sensitivity studies these organisms were grown in 10 ml of their respective media in 25 cm^2 tissue culture flasks. Cultures were inoculated to a cell density of […] and incubated for 5 days at 26° C. in a 5% CO2 atmosphere. Final cell density was determined by counting the cells on a Coulter Counter (Model ZBI); control cultures reached a final density of ≈2·10^7 /ml.
(§3) Drug stock solutions were prepared by dissolving the compounds of the invention in 0.1N NaOH and adjusting the final concentration to 2 mg/ml based on extinction coefficient. Drug was added to respective culture media (<2% v/v) and the media filter sterilized. Doses effective against 50% (ED50) and 90% (ED90) were determined by triplicate counting of organisms exposed to various drug concentrations and determining a mean value. Results were expressed as a percentage control.

Trypanosoma gambiense = assay: In vitro antiparasitic activity against Trypanosoma gambiense; type: cell-based; details: for IC50: Trypanosoma brucei, GAMBIENSE, 120 h, 5 days at 26° C., read-out: ED50 (the source's name)
Procedure: as §1, §2, §3

Giardia lamblia = assay: In vitro antiparasitic activity against Giardia lamblia; type: cell-based; details: for IC50: Giardia duodenalis, 72 h, 3 days at 37° C., read-out: ED50 (the source's name); for relative activity against G. lamblia (in words): compared with compound 2
Procedure: as §1
(§4) Giardia lamblia (PI, ATCC #30888) and Trichomonas vaqinalis (ATCC #3301) were grown in modified TYI medium in 13×100 mm screw cap tubes as described in R. L. Berens and J. J. Marr, Biochem. Pharm., 35, 4191 (1986). Cultures were inoculated at a density of 10^4 and incubated for 3 days at 37° C.; control cultures reached densities of ≈1-2·10^6 for G. lamblia and ≈6-7·10^6 for T. vaqinalis. These parasites were counted by chilling tubes on ice for 30 min., then reading the optical density at 650 nm in a Gilford 300-N micro-sample spectrophotometer. Their cell number was obtained by comparing the absorbance to a standard curve constructed from numbers obtained by counting cells in a hemocytometer.
as §3

Trichomonas vaginalis = assay: In vitro antiparasitic activity against Trichomonas vaginalis; type: cell-based; details: for IC50: Trichomonas vaginalis, 72 h, 3 days at 37° C., read-out: ED50 (the source's name)
Procedure: as §1, §4, §3

Toxicity to U937 cells = type: cell-based; details: human, u937 cells; @ 1μg/ml; read-out: % Control (U937 cells)
U937 cells = assay: Toxicity to U937 cells; type: cell-based; details: 1μg/ml
T. brucei EATRO 110 = assay: Antiparasitic activity against T. brucei EATRO 110 in animals (mouse model); type: in vivo, Trypanosoma brucei; details: mice; for % Cured / Average Survival / Range of Survival: once daily for 3 days
Procedure: Antiparasitic activity of the compounds of the invention in animals against T. brucei EATRO 110 was determined as described in C. J. Bacchi, R. L. Berens, H. C. Nathan, R. S. Klein, I. A. Elegbe, K. V. Rao, P. P. McCann and J. J. Marr, Antimicrob: Agents Chemother., 31, 1403 (1987) utilizing the mouse model described therein.
Mice (groups of 5) were infected with 2 × 10^5 trypanosomes and
treatment commenced 24 h post inoculation. Drugs were given once daily by
the route indicated for 3 days.

L. donovani = assay: Antileishmanial activity in animals (mouse model of visceral leishmaniasis); type: in vivo, Leishmania donovani; details: mice; for LDUs in Liver / Suppression (%): one week
Procedure: Antiparasitic activity of the compounds of the invention in animals against L. donovani was determined in a manner similar to that previously described J. S. Keithly and S. G. Langreth, Amer. J. Trop. Med. Hyg., 32, 485 (1983) for a hamster model. Briefly, mice were infected with 5×10^7 stationary phase promastigotes subcultured in Schneider's drosophila medium with 15% heat inactivated fetal bovine serum. The compounds of the invention were administered by gavage nine days after infection and continued for one week. Positive controls received Pentostam intraperitoneally. Infected, untreated controls received water orally but no intraperitoneal sham injections. Mice were necropsied sixteen days after infection (seven days after the beginning of drug treatment).
% Suppression = 100 100(LDUs of experimental/LDUs of control)

[2] = tested on: Leishmania donovani, Trypanosoma qambiense, Giardia lamblia and Trichomonas vaqinalis; assay: In vitro antiparasitic activity against various pathogens (overall); type: cell-based; details: compounds 2, 3 and 4 compared
Procedure: as §1
Leishmania donovani (ATCC #30142)) and Trypanosoma qambiense (TH114, obtained from R. Brun, Schweizer Tropeninstitut, Basel, Switzerland) were grown in THOSMEM, HOSMEM and PPDM-79 media respectively as described in J. J. Marr, R. L. Berens and D. J. Nelson, J. Science. 202, 1018 (1978), J. J. Marr, D. J. Nelson and R. L. Berens, Biochim. Biophys. […] Final cell density was determined by counting the cells on a Coulter Counter (Model ZBI); control cultures reached a final density of ≈2·10^7 /ml.
as §4, with “Cultures were inoculated at a density of 10^4 and incubated for 3 days at 37° C.; control cultures reached densities of ≈1-2·10^6 for G. lamblia and ≈6-7·10^6 for T. vaqinalis.” left out, “hemocytometer. […]” for “hemocytometer.”

adenosine kinase = details: certain human cell lines in-vitro; cited from earlier work
[3] = background; cited from earlier work; remark: listed apart in the source

Nc1ncnc2c1ncn2[C@@H]1O[C@H](COS(N)(=O)=O)[C@@H](O)[C@H]1O [5'-O-sulfamoyl adenosine]
antiparasitic activity (in words) (certain parasites): active in-vitro against certain parasites
toxicity (in words) [1]: extremely toxic

NC(=O)c1ncn([C@@H]2O[C@H](COS(N)(=O)=O)[C@@H](O)[C@H]2O)n1 [Compound 2, 1-(5'-O-Sulfamoyl-β-D-ribofuranosyl)[1,2,4]triazole-3-carboxamide]
antileishmanial activity in vitro (in words) (Leishmania donovani): significant activity as an antileishmanial agent
IC50 (Leishmania donovani): 0.03 µg/mL (≈ 0.0928 µM)
activity against T. gambiense (in words) (Trypanosoma gambiense): shows antitrypanosomal activity; also recorded: killed by low concentrations
IC50 (Trypanosoma gambiense): 0.01 to 0.05 µg/mL (≈ 0.0309 to 0.155 µM)
IC50 (Giardia lamblia): 5 to 10 µg/mL (≈ 15.5 to 30.9 µM)
IC50 (Trichomonas vaginalis): > 25 µg/mL
viability (Toxicity to U937 cells): 10%
toxicity to U937 cells (in words) (U937 cells): toxic
% Cured (T. brucei EATRO 110; 1 mg/kg (i.p.)): 0%
Average Survival (T. brucei EATRO 110; 1 mg/kg (i.p.)): 4.6 days
Range of Survival (T. brucei EATRO 110; 1 mg/kg (i.p.)): 4 to 5 days
% Cured (T. brucei EATRO 110; 5 mg/kg (i.p.)): 0%
Average Survival (T. brucei EATRO 110; 5 mg/kg (i.p.)): 4.8 days
Range of Survival (T. brucei EATRO 110; 5 mg/kg (i.p.)): 4 to 6 days
% Cured (T. brucei EATRO 110; 10 mg/kg (i.p.)): 0%
Average Survival (T. brucei EATRO 110; 10 mg/kg (i.p.)): 7.4 days
Range of Survival (T. brucei EATRO 110; 10 mg/kg (i.p.)): 4 to 11 days
% Cured (T. brucei EATRO 110; 20 mg/kg (i.p.)): 0%
Average Survival (T. brucei EATRO 110; 20 mg/kg (i.p.)): 7.4 days
Range of Survival (T. brucei EATRO 110; 20 mg/kg (i.p.)): 4 to 11 days
% Cured (T. brucei EATRO 110; 50 mg/kg (i.p.)): 0%
Average Survival (T. brucei EATRO 110; 50 mg/kg (i.p.)): 6.4 days
Range of Survival (T. brucei EATRO 110; 50 mg/kg (i.p.)): 4 to 10 days
% Cured (T. brucei EATRO 110; 50 mg/kg (i.v.)): 0%
Average Survival (T. brucei EATRO 110; 50 mg/kg (i.v.)): 6.4 days
Range of Survival (T. brucei EATRO 110; 50 mg/kg (i.v.)): 4 to 12 days
% Cured (T. brucei EATRO 110; 50 mg/kg (p.o.)): 0%
Average Survival (T. brucei EATRO 110; 50 mg/kg (p.o.)): 11.6 days
Range of Survival (T. brucei EATRO 110; 50 mg/kg (p.o.)): 10 to 14 days
activity against T. brucei in animals (in words) (T. brucei EATRO 110; i.p., i.v., oral): exhibits this activity when administered orally; also recorded: shows intraperitoneal, intravenous and oral activity; also recorded: oral activity of compound 2 is greater than intraperitoneal activity; also recorded: prolonged survival at all dosages tested
LDUs in Liver (L. donovani; 10 mg/kg/day, gavage): 1244 ± 469 LDUs
Suppression (%) (L. donovani; 10 mg/kg/day, gavage): 18%
LDUs in Liver (L. donovani; 20 mg/kg/day, gavage): 765 ± 133 LDUs
Suppression (%) (L. donovani; 20 mg/kg/day, gavage): 50%
LDUs in Liver (L. donovani; 50 mg/kg/day, gavage): 501 ± 276 LDUs
Suppression (%) (L. donovani; 50 mg/kg/day, gavage): 67%
antileishmanial activity in animals (in words) (L. donovani; compared with Pentostam): good suppression of the parasites in the livers; also recorded: response equivalent to that of optimized Pentostam; also recorded: as active as Pentostam; also recorded: as active as pentavalent antimony
relative antiparasitic activity in vitro (in words) [2]: the most active and had the lowest ED50 against these organisms

NC(=S)c1ncn([C@@H]2O[C@H](COS(N)(=O)=O)[C@@H](O)[C@H]2O)n1 [Compound 3, 1-(5'-O-Sulfamoyl-β-D-ribofuranosyl)[1,2,4]triazole-3-thiocarboxamide]
IC50 (Leishmania donovani): 2.5 µg/mL (≈ 7.37 µM)
IC50 (Trypanosoma gambiense): 0.5 µg/mL (≈ 1.47 µM)
IC50 (Giardia lamblia): > 25 µg/mL
relative activity against G. lamblia (in words) (Giardia lamblia): about the same as for compound 2
IC50 (Trichomonas vaginalis): 15 µg/mL (≈ 44.2 µM)
relative activity against T. vaginalis (in words) (Trichomonas vaginalis; compared with compounds 2 or 4): greater activity; also recorded: greater activity than compounds 2 or 4

N#Cc1ncn([C@@H]2O[C@H](COS(N)(=O)=O)[C@@H](O)[C@H]2O)n1 [Compound 4, 1-(5'-0-Sulfamoyl-β-D-ribofuranosyl)[1,2,4]triazole-3-carbonitrile]
IC50 (Leishmania donovani): 1 to 5 µg/mL (≈ 3.28 to 16.4 µM)
IC50 (Trypanosoma gambiense): 1 to 5 µg/mL (≈ 3.28 to 16.4 µM)
IC50 (Giardia lamblia): > 25 µg/mL
relative activity against G. lamblia (in words) (Giardia lamblia): about the same as for compound 2
IC50 (Trichomonas vaginalis): > 25 µg/mL

O.O.O.O.O.O.O.O.O.O=C([O-])[C@@H]1[O][Sb](=[O])([O][Sb]2(=[O])[O][C@H]([C@H](O)CO)[C@H](O)[C@H](C(=O)[O-])[O]2)[O][C@H]([C@H](O)CO)[C@@H]1O.[Na+].[Na+].[Na+] (stereo partly drawn) [Pentostam, reference compound]
LDUs in Liver (L. donovani; 50 mg/kg/day, intraperitoneal): 411 ± 245 LDUs
Suppression (%) (L. donovani; 50 mg/kg/day, intraperitoneal): 73%

NC(=O)c1ncn([C@@H]2O[C@H](CO)[C@@H](O)[C@H]2O)n1 [Ribavirin, 1-(β-D-Ribofuranosyl)[1,2,4]triazole-3-carboxamide]
antiparasitic activity (in words) (certain parasites): does not have antiparasitic activity
toxicity (in words) [1]: relatively non-toxic
substrate for adenosine kinase (in words) (adenosine kinase): substrate for adenosine kinase
antiviral activity (in words) [3]: broad spectrum antiviral agent
